From US11076594B2, “Pyrazolone compound or salt thereof, preparation method therefor, herbicide composition and use thereof” (QINGDAO KINGAGROOT CHEMICAL COMPOUNDS CO., LTD., priority 2015, dated 2021) come the findings set out here.

Common to all, as to assay type: in vivo
For data set [1], the system named is echinochloa. The data set is described as follows: weed control effect in post-emergence stage (Table 1). To be noted: post-emergence spray at 4-5 leaf stage, 250 g/ha active ingredient with 450 kg/ha water, rated after 3 weeks in greenhouse. Set-up: key: Level 10: completely dead; Level 9: above 95% growth control rate; Level 8: above 90% growth control rate; Level 7: above 80% growth control rate; Level 6: above 70% growth control rate; Level 5: above 60% growth control rate; Level 4: above 50% growth control rate; Level 3: above 20% growth control rate; Level 2: 5%-20% growth control rate; Level 1: below 5% growth control rate. The gist of the method: (§1)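 Fresh-weight-based growth control rate was assessed 3 weeks after spraying. Test compound, dissolved in acetone, with tween 80 added and diluted in water, was sprayed onto greenhouse-grown, pot-cultured weeds and crop plants at 4-5 leaves, 2-3 weeks post-sowing.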

Another data set has as its system crab grass. Described as above. More on the design: key: Level 10: completely dead; Level 9: above 95% growth control rate; Level 8: above 90% growth control rate; Level 7: above 80% growth control rate; Level 6: above 70% growth control rate; Level 5: above 60% growth control rate; Level 4: above 50% growth control rate; Level 3: above 20% growth control rate; Level 2: 5%-20% growth control rate; Level 1: below 5% growth control rate. Particulars: post-emergence spray at 4-5 leaf stage, 250 g/ha active ingredient with 450 kg/ha water, rated after 3 weeks in greenhouse. In outline:
as §1

The subject of a further data set is bidens bipinnata. Described as above. More on the design: key: Level 10: completely dead; Level 9: above 95% growth control rate; Level 8: above 90% growth control rate; Level 7: above 80% growth control rate; Level 6: above 70% growth control rate; Level 5: above 60% growth control rate; Level 4: above 50% growth control rate; Level 3: above 20% growth control rate; Level 2: 5%-20% growth control rate; Level 1: below 5% growth control rate. Particulars: post-emergence spray at 4-5 leaf stage, 250 g/ha active ingredient with 450 kg/ha water, rated after 3 weeks in greenhouse. In outline:
as §1

A further data set deals with rorippa indica. Described as above. More on the design: key: Level 10: completely dead; Level 9: above 95% growth control rate; Level 8: above 90% growth control rate; Level 7: above 80% growth control rate; Level 6: above 70% growth control rate; Level 5: above 60% growth control rate; Level 4: above 50% growth control rate; Level 3: above 20% growth control rate; Level 2: 5%-20% growth control rate; Level 1: below 5% growth control rate. Particulars: post-emergence spray at 4-5 leaf stage, 250 g/ha active ingredient with 450 kg/ha water, rated after 3 weeks in greenhouse. In outline: as §1

A further data set has as its system foxtail. The description is as above. More on the design: key: Level 10: completely dead; Level 9: above 95% growth control rate; Level 8: above 90% growth control rate; Level 7: above 80% growth control rate; Level 6: above 70% growth control rate; Level 5: above 60% growth control rate; Level 4: above 50% growth control rate; Level 3: above 20% growth control rate; Level 2: 5%-20% growth control rate; Level 1: below 5% growth control rate. To be noted: post-emergence spray at 4-5 leaf stage, 250 g/ha active ingredient with 450 kg/ha water, rated after 3 weeks in greenhouse. The gist of the method:
as §1

Another data set deals with Indian mallow. The data set is described as above. More on the design: key: Level 10: completely dead; Level 9: above 95% growth control rate; Level 8: above 90% growth control rate; Level 7: above 80% growth control rate; Level 6: above 70% growth control rate; Level 5: above 60% growth control rate; Level 4: above 50% growth control rate; Level 3: above 20% growth control rate; Level 2: 5%-20% growth control rate; Level 1: below 5% growth control rate. To be noted: post-emergence spray at 4-5 leaf stage, 250 g/ha active ingredient with 450 kg/ha water, rated after 3 weeks in greenhouse. In outline:
as §1

For data set [2], the system named is echinochloa. The experiment in a line: weed control effect evaluation in rice field. More on the design: key: Level 10: completely dead; Level 9: above 95% growth control rate; Level 8: above 90% growth control rate; Level 7: above 80% growth control rate; Level 6: above 70% growth control rate; Level 5: above 60% growth control rate; Level 4: above 50% growth control rate; Level 3: above 20% growth control rate; Level 2: 5%-20% growth control rate; Level 1: below 5% growth control rate. To be noted: 125 g/ha ai; rice field pot; 14 days after treatment; resistant to pyrazosulfuron-ethyl. The text has this: (§2) The activity level standard of harmful plant destruction (i.e. growth control rate) is as follows: Rice field soil was loaded into a 1/1,000,000 ha pot. The seeds of echinochloa, scirpus juncoides, bidens tripartite and sagittaria trifolia were sowed and gently covered with soil, then left to stand still in greenhouse in the state of 0.5-1 cm of water storage. The tuber of sagittaria trifolia was planted in the next day or 2 days later. It was kept at 3-4 cm of water storage thereafter. The weeds were treated by dripping the WP or SC water diluents prepared according to the common preparation method of the compounds of the present invention with pipette homogeneously to achieve specified effective amount when echinochloa, scirpus juncoides and bidens tripartite reached 0.5 leaf stage and sagittaria trifolia reached the time point of primary leaf stage. The fertility condition of echinochloa, scirpus juncoides, bidens tripartite and sagittaria trifolia 14 days after the treatment of the compound of the invention and the fertility condition of rice 21 days after the treatment of the compound of the invention respectively with the naked eye.

A further data set deals with bidens tripartite. The experiment in a line: weed control effect evaluation in rice field. Set-up: key: Level 10: completely dead; Level 9: above 95% growth control rate; Level 8: above 90% growth control rate; Level 7: above 80% growth control rate; Level 6: above 70% growth control rate; Level 5: above 60% growth control rate; Level 4: above 50% growth control rate; Level 3: above 20% growth control rate; Level 2: 5%-20% growth control rate; Level 1: below 5% growth control rate. Particulars: 125 g/ha ai; rice field pot; 14 days after treatment; resistant to pyrazosulfuron-ethyl.
Source text: as §2

A further data set concerns scirpus juncoides. The experiment in a line: weed control effect evaluation in rice field. More on the design: key: Level 10: completely dead; Level 9: above 95% growth control rate; Level 8: above 90% growth control rate; Level 7: above 80% growth control rate; Level 6: above 70% growth control rate; Level 5: above 60% growth control rate; Level 4: above 50% growth control rate; Level 3: above 20% growth control rate; Level 2: 5%-20% growth control rate; Level 1: below 5% growth control rate. Particulars: 125 g/ha ai; rice field pot; 14 days after treatment; resistant to pyrazosulfuron-ethyl.
Source text: as §2

The next data set relates to sagittaria trifolia. The experiment in a line: weed control effect evaluation in rice field. Set-up: key: Level 10: completely dead; Level 9: above 95% growth control rate; Level 8: above 90% growth control rate; Level 7: above 80% growth control rate; Level 6: above 70% growth control rate; Level 5: above 60% growth control rate; Level 4: above 50% growth control rate; Level 3: above 20% growth control rate; Level 2: 5%-20% growth control rate; Level 1: below 5% growth control rate. To be noted: 125 g/ha ai; rice field pot; 14 days after treatment; resistant to pyrazosulfuron-ethyl.
Source text: as §2

In the next data set the test system is rice. The data set is described as follows: post-emergence stage experiment, crop (Table 1). Particulars: post-emergence spray at 4-5 leaf stage, 250 g/ha active ingredient with 450 kg/ha water, rated after 3 weeks in greenhouse. In outline: as §1
The subject of a further data set is wheat. The data set is described as follows: post-emergence stage experiment, crop (Table 1). To be noted: post-emergence spray at 4-5 leaf stage, 250 g/ha active ingredient with 450 kg/ha water, rated after 3 weeks in greenhouse. In outline:
as §1

The test system of another data set is rice (japonica rice). The data set is described as follows: transplanted rice safety evaluation. Particulars: 125 g/ha ai; treated 5 days after transplantation; 21 days after treatment. As to the method:
The activity level standard of harmful plant destruction (i.e. growth control rate) is as follows: In addition, the rice field soil that loaded into the 1/1,000,000 ha pot was leveled to keep water storage at 3-4 cm depth. The 3 leaf stage rice (japonica rice) was transplanted at 3 cm of transplanting depth the next day. The compound of the present invention was treated by the same way after 5 days of transplantation. The fertility condition of echinochloa, scirpus juncoides, bidens tripartite and sagittaria trifolia 14 days after the treatment of the compound of the invention and the fertility condition of rice 21 days after the treatment of the compound of the invention respectively with the naked eye.

Molecules are shown by their SMILES.

Take `Cc1nn(C)c(O)c1C(=O)c1ccc(C(F)(F)F)c(N2CCCCCC2=O)c1Cl` [Compound 054]: the “weed control effect, Echinochloa (level)” value with echinochloa [1] is on record as 6 (Level 6: above 70% growth control rate). In addition, the “weed control effect, Crab grass (level)” value in the data set with crab grass is given as 1 (Level 1: below 5% growth control rate). In the data set on bidens bipinnata, the “weed control effect, Bidens bipinnata (level)” value is recorded as 9 (Level 9: above 95% growth control rate). Also, the “weed control effect, Rorippa indica (level)” value in the data set with rorippa indica is reported as 9 (Level 9: above 95% growth control rate). Also, in the data set with foxtail, the “weed control effect, Green foxtail (level)” value was 5 (Level 5: above 60% growth control rate). For the same compound, the “weed control effect, Indian mallow (level)” value with Indian mallow is 9 (Level 9: above 95% growth control rate). Further, the “Echinochloa weed control effect (activity level)” value (“Echinochloa weed control effect” for short) in the data set with echinochloa [2] is 8 (Level 8: above 90% growth control rate). In the data set on bidens tripartite, the “Bidens tripartite weed control effect (activity level)” value (“Bidens tripartite weed control effect” below) is 9 (Level 9: above 95% growth control rate). Besides, the “Scirpus juncoides weed control effect (activity level)” value (“Scirpus juncoides weed control effect” for short) in the data set with scirpus juncoides was 9 (Level 9: above 95% growth control rate). Further, the “Sagittaria trifolia weed control effect (activity level)” value (from here on “Sagittaria trifolia weed control effect”) with sagittaria trifolia is on record as 9 (Level 9: above 95% growth control rate). Besides, the “effect on crop, Rice (level)” value in the data set with rice is listed as 4 (Level 4: above 50% growth control rate). The “effect on crop, Wheat (level)” value in the data set with wheat is 0. In addition, the “Rice (activity level, transplanted rice safety)” value with rice (japonica rice) is listed as 2 (Level 2: 5%-20% growth control rate).

For `Cc1ccn(-c2c(C(F)(F)F)ccc(C(=O)c3c(C)nn(C)c3O)c2Cl)n1` [Compound 077], the “weed control effect, Echinochloa (level)” value in the data set on echinochloa [1] is 10. In addition, the “weed control effect, Crab grass (level)” value in the data set on crab grass is 4 (Level 4: above 50% growth control rate). The “weed control effect, Bidens bipinnata (level)” value in the data set on bidens bipinnata was 9 (Level 9: above 95% growth control rate). For the same compound, the “weed control effect, Rorippa indica (level)” value in the data set on rorippa indica is 10. The “weed control effect, Green foxtail (level)” value in the data set with foxtail was 7 (Level 7: above 80% growth control rate). In addition, in the data set on Indian mallow, the “weed control effect, Indian mallow (level)” value is reported as 10. The “Echinochloa weed control effect” value with echinochloa [2] is reported as 10. Besides, the “Bidens tripartite weed control effect” value in the data set with bidens tripartite is listed as 9 (Level 9: above 95% growth control rate). Further, the “Scirpus juncoides weed control effect” value in the data set on scirpus juncoides amounted to 10. In the data set on sagittaria trifolia, the “Sagittaria trifolia weed control effect” value is recorded as 10. The “effect on crop, Rice (level)” value in the data set on rice was 6 (Level 6: above 70% growth control rate). Further, in the data set with wheat, the “effect on crop, Wheat (level)” value was found to be 0. Moreover, the “Rice (activity level, transplanted rice safety)” value with rice (japonica rice) is 1 (Level 1: below 5% growth control rate).

As for `Cc1nn(C)c(O)c1C(=O)c1ccc(C(F)(F)F)c(-n2cccn2)c1Cl` [Compound 068], in the data set on echinochloa [1], the “weed control effect, Echinochloa (level)” value was 10. Moreover, the “weed control effect, Crab grass (level)” value with crab grass is 5 (Level 5: above 60% growth control rate). For the same compound, in the data set with bidens bipinnata, the “weed control effect, Bidens bipinnata (level)” value is 10. Also, in the data set on rorippa indica, the “weed control effect, Rorippa indica (level)” value is 9 (Level 9: above 95% growth control rate). Further, the “weed control effect, Green foxtail (level)” value in the data set on foxtail is 10. Besides, in the data set on Indian mallow, the “weed control effect, Indian mallow (level)” value turned out to be 10. In addition, in the data set on echinochloa [2], the “Echinochloa weed control effect” value is listed as 10. Besides, in the data set with bidens tripartite, the “Bidens tripartite weed control effect” value is recorded as 10. For the same compound, the “Scirpus juncoides weed control effect” value in the data set on scirpus juncoides is 9 (Level 9: above 95% growth control rate). In addition, the “Sagittaria trifolia weed control effect” value in the data set on sagittaria trifolia came out at 10. The “effect on crop, Rice (level)” value in the data set on rice is 5 (Level 5: above 60% growth control rate). In addition, in the data set on wheat, the “effect on crop, Wheat (level)” value was 3 (Level 3: above 20% growth control rate). For the same compound, the “Rice (activity level, transplanted rice safety)” value with rice (japonica rice) is recorded as 1 (Level 1: below 5% growth control rate).

In the case of `Cc1nn(C)c(O)c1C(=O)c1ccc(C(F)(F)F)c(N)c1Cl` [Compound 001], the “weed control effect, Echinochloa (level)” value in the data set on echinochloa [1] is reported as 6 (Level 6: above 70% growth control rate). Further, the “weed control effect, Crab grass (level)” value in the data set on crab grass is on record as 1 (Level 1: below 5% growth control rate). The “weed control effect, Bidens bipinnata (level)” value with bidens bipinnata is given as 8 (Level 8: above 90% growth control rate). Also, in the data set with rorippa indica, the “weed control effect, Rorippa indica (level)” value is reported as 9 (Level 9: above 95% growth control rate). Besides, the “weed control effect, Green foxtail (level)” value in the data set with foxtail is 6 (Level 6: above 70% growth control rate). Also, in the data set with Indian mallow, the “weed control effect, Indian mallow (level)” value is listed as 9 (Level 9: above 95% growth control rate). The “Echinochloa weed control effect” value with echinochloa [2] is on record as 10. For the same compound, the “Bidens tripartite weed control effect” value with bidens tripartite was 8 (Level 8: above 90% growth control rate). Besides, the “Scirpus juncoides weed control effect” value in the data set with scirpus juncoides turned out to be 10. In the data set with sagittaria trifolia, the “Sagittaria trifolia weed control effect” value is on record as 9 (Level 9: above 95% growth control rate). The “effect on crop, Rice (level)” value with rice was 4 (Level 4: above 50% growth control rate). In addition, the “effect on crop, Wheat (level)” value in the data set on wheat worked out at 0. In addition, the “Rice (activity level, transplanted rice safety)” value in the data set on rice (japonica rice) is 0.
